Data taken from patent EP2272817A1, “PAI-1 INHIBITOR” (Institute of Medicinal Molecular Design, Inc., priority 2008, dated 2009).
Like-named read-outs stand apart in the source and are kept apart here.

Assays:
recombinant human PAI-1 [1] = molecular target: T1, recombinant human PAI-1 (Homo sapiens, UniProt P05121); assay: biochemical; conditions: for inhibition at 25 µM: read-out: Inhibition Rate of PAI-1 Activity (%), Compound Concentration 25µM
Procedure: To this solution, 6 µl of 80 nM recombinant human PAI-1 (Molecular Innovations, Inc.) solution prepared with Tris buffer was added, and the plate was incubated for 5 minutes at room temperature. Furthermore, 30 µl of 800 IU/ml two-chain tPA (Activity Standard; American diagnostica, inc.) prepared with Tris buffer was added, and the mixed solution was incubated for 15 minutes at room temperature. Then, 30 µl of 400 µM fluorogenic substrate (Pyr-Gly-Arg-MCA; Peptide Institute, Inc.) for tPA prepared with Tris buffer was added and reacted for 30 minutes at room temperature.
50 mM Tris, 150 mM NaCl, 10 µg/ml BSA, 0.01 % Tween80 (SIGMA-ALDRICH Corporation)

recombinant rat PAI-1 = molecular target: T2, recombinant rat PAI-1 (Rattus norvegicus, UniProt P20961); assay: biochemical; conditions: read-out: Inhibition Rate of PAI-1 Activity (%)
T2 sequence (P20961 24-402): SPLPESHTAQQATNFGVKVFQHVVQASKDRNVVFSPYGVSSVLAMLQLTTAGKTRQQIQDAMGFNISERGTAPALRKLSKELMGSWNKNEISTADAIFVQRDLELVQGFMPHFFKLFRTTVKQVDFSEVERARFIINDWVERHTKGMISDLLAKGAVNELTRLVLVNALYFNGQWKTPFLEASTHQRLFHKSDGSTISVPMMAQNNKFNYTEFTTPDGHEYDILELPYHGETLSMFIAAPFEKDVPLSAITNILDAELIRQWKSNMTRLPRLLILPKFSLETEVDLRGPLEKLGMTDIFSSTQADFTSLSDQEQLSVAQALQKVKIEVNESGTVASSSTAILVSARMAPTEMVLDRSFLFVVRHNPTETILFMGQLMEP

recombinant human PAI-1 [2] = molecular target: T1, recombinant human PAI-1; assay: Test Example 2: Human PAI-1 Inhibitory Activity (pH 7.4 HEPES buffer, 10 minutes incubation with two-chain tPA); format: biochemical; parameters: purchased Molecular Innovations, Inc; conditions: read-out: Inhibition Rate of PAI-1 Activity (%)
Procedure: 0.1 M HEPES, 0.1 M NaCl. 1 mM EDTA. 0.1 % Polyethylene glycol 8,000 (Hampton Research Corporation),
2 mM Dimethyldecylphoshine oxide [Apo-10] (Fluka Corporation)

[3] = read-out: Inhibition Rate of PAI-1 Activity (%), Compound Concentration 5µM
[4] = read-out: Inhibition Rate of PAI-1 Activity (%), Compound Concentration 10µM
[5] = read-out: Inhibition Rate of PAI-1 Activity (%)

T1 sequence (P05121 24-402): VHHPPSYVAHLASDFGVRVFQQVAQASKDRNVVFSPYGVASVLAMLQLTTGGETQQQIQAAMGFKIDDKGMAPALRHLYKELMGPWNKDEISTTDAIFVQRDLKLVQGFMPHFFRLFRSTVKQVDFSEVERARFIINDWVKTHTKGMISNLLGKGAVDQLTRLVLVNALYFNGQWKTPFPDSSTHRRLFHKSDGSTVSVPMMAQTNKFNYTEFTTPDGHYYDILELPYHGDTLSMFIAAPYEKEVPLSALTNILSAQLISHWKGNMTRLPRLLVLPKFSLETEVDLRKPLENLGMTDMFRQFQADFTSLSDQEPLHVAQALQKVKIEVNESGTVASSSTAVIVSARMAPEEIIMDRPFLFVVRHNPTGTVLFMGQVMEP

inhibition at 5 µM (recombinant human PAI-1 [1]; [5]) | inhibition at 10 µM (recombinant human PAI-1 [1]; [5]) | SMILES | inhibition at 5 µM (recombinant human PAI-1 [1]; [3]) | inhibition at 10 µM (recombinant human PAI-1 [1]; [4]) | inhibition at 25 µM (recombinant human PAI-1 [1]) | inhibition at 0.3 µM (recombinant rat PAI-1) | inhibition at 1 µM (recombinant rat PAI-1) | inhibition at 3 µM (recombinant rat PAI-1) | inhibition at 10 µM (recombinant rat PAI-1) | inhibition at 0.1 µM (recombinant human PAI-1 [2]) | inhibition at 0.3 µM (recombinant human PAI-1 [2]) | inhibition at 1 µM (recombinant human PAI-1 [2]) | inhibition at 3 µM (recombinant human PAI-1 [2])
 |  | CC(C)(C)c1ccc(CN(C(=O)C(=O)O)c2ccc(Cl)cc2-c2ccc(OC(F)(F)F)cc2)cc1 [Compound 192] | 80% | 95% | 94% | 0% | 8% | 76% | 96% | 0% | 1% | 35% | > 99%
 |  | CC(C)(C)c1ccc(CN(C(=O)C(=O)O)c2cccc(Oc3ccc(OC(F)(F)F)cc3)c2)cc1 [Compound 172] | 58% | 89% | 94% | 0% | 6% | 49% | 97% | 4% | 8% | 18% | 76%
93% | 84% | CCN(CC)c1ccc(N(Cc2ccc(C(C)(C)C)cc2)C(=O)C(=O)O)cc1-c1ccc(OC(F)(F)F)cc1 [Compound 213] |  |  |  | 8% | 26% | 90% | 78% | 0% | 10% | 48% | 98%
